Test results published in patent US11083725B2 (priority 2014, dated 2021).

System: NHBE cells
Test: Biolog metabolic array: substrate use by NHBE cells with or without CA09 infection
Format: cell-based, human
Conditions: for Substrate use, 590 nm absorbance normalized to zero hour, 1 hr: Biolog PMM2, 1 hr; for Substrate use, 590 nm absorbance normalized to zero hour, 5 hr: Biolog PMM2, 5 hr; for Substrate use, 590 nm absorbance normalized to zero hour, 7 hr: Biolog PMM2, 7 hr
[1] = Control (uninfected) NHBE cells
[2] = Virus (CA09-infected, MOI 1) NHBE cells
[3] = Virus: CA09-infected NHBE cells, MOI 1, Biolog PMM2
[4] = Virus (CA09-infected NHBE cells, MOI 1)

SMILES	590 nm absorbance normalized to zero hour (substrate use), 1 hr [1]	590 nm absorbance normalized to zero hour (substrate use), 2 hr [1]	590 nm absorbance normalized to zero hour (substrate use), 3 hr [1]	590 nm absorbance normalized to zero hour (substrate use), 4 hr [1]	590 nm absorbance normalized to zero hour (substrate use), 6 hr [1]	590 nm absorbance normalized to zero hour (substrate use), 8 hr [1]	590 nm absorbance normalized to zero hour (substrate use), 9 hr [1]	590 nm absorbance normalized to zero hour (substrate use), 10 hr [1]	590 nm absorbance normalized to zero hour (substrate use), 11 hr [1]	Substrate use, 590 nm absorbance normalized to zero hour, 1 hr [1]	Substrate use, 590 nm absorbance normalized to zero hour, 5 hr [1]	Substrate use, 590 nm absorbance normalized to zero hour, 7 hr [1]	590 nm absorbance normalized to zero hour (substrate use), 1 hr [3]	590 nm absorbance normalized to zero hour (substrate use), 2 hr [3]	590 nm absorbance normalized to zero hour (substrate use), 3 hr [3]	590 nm absorbance normalized to zero hour (substrate use), 4 hr [3]	590 nm absorbance normalized to zero hour (substrate use), 5 hr [3]	590 nm absorbance normalized to zero hour (substrate use), 6 hr [3]	590 nm absorbance normalized to zero hour (substrate use), 7 hr [3]	590 nm absorbance normalized to zero hour (substrate use), 8 hr [3]	further results
O=c1[nH]cnc2c1ncn2[C@@H]1O[C@H](CO)[C@@H](O)[C@H]1O [Inosine]	3.56	5.67	2.78	4.11	2.23	4.46	6.41	6.92	5.14	3.56	4.02	6.19	1.16	1.78	2.23	2.45	3.06	3.30	3.54	3.88	590 nm absorbance normalized to zero hour (substrate use), 1 hr [2]: 1.16; 590 nm absorbance normalized to zero hour (substrate use), 2 hr [2]: 1.78; 590 nm absorbance normalized to zero hour (substrate use), 3 hr [2]: 2.23; 590 nm absorbance normalized to zero hour (substrate use), 4 hr [2]: 2.45; 590 nm absorbance normalized to zero hour (substrate use), 5 hr [2]: 3.06; 590 nm absorbance normalized to zero hour (substrate use), 6 hr [2]: 3.30; 590 nm absorbance normalized to zero hour (substrate use), 7 hr [2]: 3.54; 590 nm absorbance normalized to zero hour (substrate use), 8 hr [2]: 3.88; 590 nm absorbance normalized to zero hour (substrate use), 9 hr [2]: 4.33; 590 nm absorbance normalized to zero hour (substrate use), 10 hr [2]: 3.83; 590 nm absorbance normalized to zero hour (substrate use), 11 hr [2]: 4.20; 590 nm absorbance normalized to zero hour (substrate use), 9 hr [3]: 4.33; 590 nm absorbance normalized to zero hour (substrate use), 10 hr [3]: 3.83; 590 nm absorbance normalized to zero hour (substrate use), 11 hr [3]: 4.20
O=C[C@H](O)[C@@H](O)[C@@H](O)CO [L-Arabinose]	1.72	2.30	2.99	3.04	2.95	3.74	4.05	4.01	4.09	1.72	3.33	3.87	1.79	2.45	3.01	3.10	3.49	3.66	3.82	4.01	590 nm absorbance normalized to zero hour (substrate use), 1 hr [2]: 1.79; 590 nm absorbance normalized to zero hour (substrate use), 2 hr [2]: 2.45; 590 nm absorbance normalized to zero hour (substrate use), 3 hr [2]: 3.01; 590 nm absorbance normalized to zero hour (substrate use), 4 hr [2]: 3.10; 590 nm absorbance normalized to zero hour (substrate use), 5 hr [2]: 3.49; 590 nm absorbance normalized to zero hour (substrate use), 6 hr [2]: 3.66; 590 nm absorbance normalized to zero hour (substrate use), 7 hr [2]: 3.82; 590 nm absorbance normalized to zero hour (substrate use), 8 hr [2]: 4.01; 590 nm absorbance normalized to zero hour (substrate use), 9 hr [2]: 4.41; 590 nm absorbance normalized to zero hour (substrate use), 10 hr [2]: 4.50; 590 nm absorbance normalized to zero hour (substrate use), 11 hr [2]: 4.78; 590 nm absorbance normalized to zero hour (substrate use), 9 hr [3]: 4.41; 590 nm absorbance normalized to zero hour (substrate use), 10 hr [3]: 4.50; 590 nm absorbance normalized to zero hour (substrate use), 11 hr [3]: 4.78
C[C@@H]1OC(O)[C@@H](O)[C@H](O)[C@@H]1O (stereo partly drawn) [L-Fucose]	0.10	0.20	0.18	0.18	0.26	0.27	0.26	0.24	0.26	0.10	0.22	0.25	0.21	0.28	0.33	0.35	0.42	0.45	0.47	0.50	590 nm absorbance normalized to zero hour (substrate use), 0 hr [1]: 1.00; Substrate use, 590 nm absorbance normalized to zero hour, 0 hr (Control (uninfected) NHBE cells, Biolog PMM2, 0 hr): 1.00; 590 nm absorbance normalized to zero hour (substrate use), 0 hr [4]: 1.00; 590 nm absorbance normalized to zero hour (substrate use), 1 hr [4]: 0.21; 590 nm absorbance normalized to zero hour (substrate use), 2 hr [4]: 0.28; 590 nm absorbance normalized to zero hour (substrate use), 3 hr [4]: 0.33; 590 nm absorbance normalized to zero hour (substrate use), 4 hr [4]: 0.35; 590 nm absorbance normalized to zero hour (substrate use), 5 hr [4]: 0.42; 590 nm absorbance normalized to zero hour (substrate use), 6 hr [4]: 0.45; 590 nm absorbance normalized to zero hour (substrate use), 7 hr [4]: 0.47; 590 nm absorbance normalized to zero hour (substrate use), 8 hr [4]: 0.50; 590 nm absorbance normalized to zero hour (substrate use), 9 hr [4]: 0.54; 590 nm absorbance normalized to zero hour (substrate use), 10 hr [4]: 0.57; 590 nm absorbance normalized to zero hour (substrate use), 11 hr [4]: 0.61; 590 nm absorbance normalized to zero hour (substrate use), 0 hr [3]: 1.00; 590 nm absorbance normalized to zero hour (substrate use), 9 hr [3]: 0.54; 590 nm absorbance normalized to zero hour (substrate use), 10 hr [3]: 0.57; 590 nm absorbance normalized to zero hour (substrate use), 11 hr [3]: 0.61
